Series [1] deals with T1, SmCHS2 (chitin synthase 2) (Saprolegnia monoica, UniProt D7NQS9).
T1 construct: full-length SmCHS2 (962 amino acids) fused to eGFP at its C-terminus, expressed in Pichia pastoris, CHAPS extract of membranes
T1 sequence (D7NQS9 1-962): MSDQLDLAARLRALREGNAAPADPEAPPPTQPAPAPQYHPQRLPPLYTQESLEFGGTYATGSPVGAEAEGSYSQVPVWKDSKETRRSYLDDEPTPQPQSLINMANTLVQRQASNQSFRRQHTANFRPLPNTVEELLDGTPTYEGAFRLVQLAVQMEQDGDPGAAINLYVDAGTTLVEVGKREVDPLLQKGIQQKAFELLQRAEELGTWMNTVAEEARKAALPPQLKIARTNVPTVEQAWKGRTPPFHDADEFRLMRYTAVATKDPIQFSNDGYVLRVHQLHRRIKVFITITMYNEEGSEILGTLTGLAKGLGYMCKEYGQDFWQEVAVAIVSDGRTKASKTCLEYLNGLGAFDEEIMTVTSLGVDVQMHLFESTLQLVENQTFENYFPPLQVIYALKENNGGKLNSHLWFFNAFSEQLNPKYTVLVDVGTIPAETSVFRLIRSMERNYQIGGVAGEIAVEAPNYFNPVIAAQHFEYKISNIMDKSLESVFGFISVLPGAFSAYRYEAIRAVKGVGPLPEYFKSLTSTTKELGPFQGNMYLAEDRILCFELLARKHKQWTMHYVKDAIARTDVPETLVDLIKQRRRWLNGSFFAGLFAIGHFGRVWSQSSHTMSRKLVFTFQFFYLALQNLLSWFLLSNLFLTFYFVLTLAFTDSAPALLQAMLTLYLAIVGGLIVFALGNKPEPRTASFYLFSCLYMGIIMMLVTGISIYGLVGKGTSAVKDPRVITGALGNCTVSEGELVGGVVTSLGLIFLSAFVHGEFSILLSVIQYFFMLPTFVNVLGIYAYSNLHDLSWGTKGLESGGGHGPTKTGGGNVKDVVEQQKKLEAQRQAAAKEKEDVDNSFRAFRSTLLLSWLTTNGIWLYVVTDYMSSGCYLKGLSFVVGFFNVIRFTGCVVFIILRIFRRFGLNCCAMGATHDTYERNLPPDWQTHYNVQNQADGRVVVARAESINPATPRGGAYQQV
Kind of series: radiometric chitin synthase assay ([…]-UDP-GlcNAc) on CHAPS membrane extract of recombinant Pichia; Dixon plots. The format is biochemical.

Substrate in series [2]: CC(=O)N[C@H]1[C@@H](OP(=O)(O)OP(=O)(O)OC[C@H]2O[C@@H](n3ccc(=O)[nH]c3=O)[C@H](O)[C@@H]2O)O[C@H](CO)[C@@H](O)[C@@H]1O
Kind of series: radiometric chitin synthase assay on CHAPS membrane extract of recombinant Pichia; apparent Km. The format is biochemical, Saprolegnia monoica.

In article PMC2928807, “Chitin Synthases from Saprolegnia Are Involved in Tip Growth and Represent a Potential Target for Anti-Oomycete Drugs” (PLoS Pathogens, 2010) one finds Ki and Km data, which are given here for two molecules.

`C[C@@H]([C@H](N)C(=O)N[C@H](C(=O)O)[C@H]1O[C@@H](n2ccc(=O)[nH]c2=O)[C@H](O)[C@@H]1O)[C@H](O)c1ccc(O)cn1` [nikkomycin Z]: the Ki in series [1] was found to be 4.6 µM.

B1: SmCHS2 (chitin synthase 2) (Saprolegnia monoica) (protein)
chain: T1 sequence (D7NQS9 1-962)
notes: full-length SmCHS2 (962 amino acids) fused to eGFP at its C-terminus, expressed in Pichia pastoris, CHAPS extract of membranes
With B1, the Km in series [2] is 150+12 µM.

As usually defined, the Ki is the equilibrium dissociation constant of an inhibitor or competing ligand from its target.
